Source: patent publication US8455448B2, “Myostatin isoform” (Myostin Therapeutics Pty Ltd, priority 2004, dated 2013)

Legend:
[1] = tested on: rats bearing the AH130 tumour; experiment: Muscle mass during cancer-induced cachexia, rats with AH130 tumour; type: in vivo, rat; conditions: 1 μg/g bodymass s.c. twice daily for 6 d, six hind limb muscles, FIG. 18
Method: In this study, 21 male rats (three months of age) were allocated at random into three groups of seven. Group one was injected i.p. with sterile saline (non-cancer controls), groups two and three were inoculated i.p. with 100 μl of the AH130 tumour (Baracos et al 1995). Groups one and two were injected twice daily s.c. for six days with sterile saline, while group three was injected twice daily s.c. for six days with 1 μg/g bodymass with roMSV47. Rats were killed at day six and, at death, skeletal muscles (biceps femoris, gastrocnemius, tibialis anterior, quadriceps femoris, plantaris and soleus) were excised from the right hind limb of each rat and the wet mass expressed as a percent of the initial body mass on day 0.
The ascites hepatoma 130 (AH130) was obtained as a gift from Dr Vicki Baracos (University of Alberta, Edmonton, Alberta, Canada) and stored in cryovials in liquid nitrogen in a solution of 50% DMSO and 10% BSA. An aliquot was retrieved and thawed and 1 ml was injected i.p. into each of three donor rats and allowed to grow for seven days. The rats were killed by CO2 asphyxiation followed by cervical dislocation. […] The volume of ascites in the peritoneal cavity was removed with a syringe and the volume recorded. Six muscles in the right hind limb (biceps femoris, gastrocnemius, soleus, plantaris, tibialis anterior and quadriceps femoris) were excised and their mass recorded. […]

[2] = tested on: proliferating cell nuclear antigen (PCNA); experiment: PCNA protein in proliferating C2C12 myoblasts (Western blot); type: cell-based, murine; conditions: 0.1, 1, 10 μg/ml, 48 h, FIG. 7
Method: Thus, a decrease in p21 protein expression may indicate an increased cell proliferation rate. PCNA is a positive marker of cell proliferation. It is a subunit of DNA polymerase-delta during DNA replication in the cell cycle. Higher level of PCNA protein expression is associated with higher number of cells entering the DNA replication phase of the cell cycle.
C2C12 myoblasts were seeded in 10 cm diameter tissue culture plates (Nunc, Roskilde, Denmark) at a cell density of 3000 cells per cm^2 in 10 ml of Dulbecco's modified Eagle's medium (DMEM, Invitrogen, California) supplemented with foetal bovine serum (FBS, 10% v/v, Invitrogen), penicillin (1×105 IU/l, Sigma, St Louis, Mo., USA) and streptomycin (100 mg/l, Sigma) buffered with NaHCO3 containing phenol red (7.22 nmol/l) as a pH indicator, and incubated overnight at 37° C. with 5% CO2. The medium was replaced with the test medium: DMEM with 10% FBS supplemented with, 0.1, 1 or 10 μg/ml oMSV65 (n=3). The plates were then incubated at 37° C. with 5% CO2 for 48 hours. Cells were removed from the plate by trypsin treatment, washed with phosphate buffered saline (PBS, Oxoid, UK) and resuspended in 100 μl of lysis buffer (10 mM Hepes pH 7.9, 1.5 mM MgCl2, 10 mM KCl, 0.5% NP40, one Complete protease inhibitor tablet [Roche Diagnostics, USA] per 50 ml buffer). […] Band intensities were measured with a GS800 densitometer (BioRad, USA).

For “roMSV47: 47 amino acid C-terminal mature ovine MSV fragment (SEQ ID NO: 50), recombinant from E. coli (IIFLEVYIQFCSILGEAVFKRQSKSIHFCQNFKIIACLCNTAAFRMK; Ovis aries)”, the “reduction of generalised wasting of skeletal muscle induced by cancer” value [1] was 20%.

B1: roMSV65: 65 amino acid C-terminal peptide of ovine MSV (SEQ ID NO: 49) expressed as recombinant protein in E. coli (protein)
chain: VHFYTPPYGQWIFHKERKIIFLEVYIQFCSILGEAVFKRQSKSIHFCQNFKIIACLCNTAAFRMK
modifications: Ovis aries
With B1 the “PCNA protein levels in C2C12 myoblasts” value [2] was “concentration-dependent increase in PCNA protein levels”.
